Data on five compounds can be found in patent US20210206763A1, “Anti-Proliferative Agents” (FEMTOGENIX LIMITED, priority 2015, published 2021).

Each structure is given as a SMILES string.

Experiment [1] has as its system JIMT-1. Put plainly: In vitro cytotoxicity of free payloads, MTT assay. The experiment is classed as cell-based. Conditions: Homo sapiens, 72 hour incubation. As for the experimental part: (§1) The in vitro cytotoxicity of compounds 73, 76, 81, 88 and 93 were evaluated in the JIMT-1, MCF-7, MDA-MB-453 and SK-BR-3 (all breast cancer) cell lines using the standard MIT assay for a 72 hour incubation period (Table 3).
(§2) Tumor cell lines were maintained in RPMI1640 medium supplemented with 10% heat-inactivated fetal bovine serum, 2 mM L-glutamine and 1 mM sodium pyruvate. 1800 cells per well were seeded in a volume of 180 μl in a 96-well flat bottom polystyrene plate. The cells were allowed to adhere overnight at 37° C. in a CO2 incubator. Ligands were initially formulated in DMSO, and stocks stored at −80° C. They were then further formulated at lox concentration in RPMI1640 medium. 20 ul of diluted samples were added into each treatment well. On each plate, blank wells with no cells, and untreated wells containing cells, were included. Plates were then cultured at 37° C. in a CO2 incubator for 72 hrs. Cytotoxicity was evaluated using a tetrazolium salt-based assay, the MIT assay. After 72 hours, the supernatant was removed from each well and 200 μl of a sterile filtered 500 μg/ml MTT solution in water added to each well. The plates were then incubated at 37° C. in a CO2 incubator for 4 hrs. The supernatant was then removed and the formazan crystals formed solubilized by adding 15(411 of DMSO to each well. The plate was then read on a plate reader at 540 nm, and percentage cell survival calculated as follows: ((mean absorbance treated wells at concentration x−mean absorbance blank wells)÷(mean absorbance untreated wells at concentration x−mean absorbance blank wells))×100. Data were plotted as concentration in nM vs. % cell survival in Microsoft Excel, and IC50 values (concentration where cell survival is reduced by a half) were determined from the graph.

For experiment [2], the system named is MCF-7. Kind of experiment: In vitro cytotoxicity of free payloads, MTT assay. The format is cell-based. Conditions: Homo sapiens, MCF7; 72 hour incubation. The procedure:
as §1, §2
Background: Formazan colour is commonly taken as a measure of viable cells.

Experiment [3] has as its system MDA-MB-453. Kind of experiment: In vitro cytotoxicity of free payloads, MTT assay. The experiment is classed as cell-based. Conditions: Homo sapiens, 72 hour incubation. The procedure:
as §1, §2

Experiment [4] deals with SK-BR-3. Put plainly: In vitro cytotoxicity of free payloads, MTT assay. The experiment is classed as cell-based. Conditions: Homo sapiens, 72 hour incubation. The procedure:
as §1, §2

Experiment [5] relates to HexA DNA fragment. Put plainly: DNA footprinting. The experiment is classed as binding. Conditions: overnight incubation of ligand-DNA complexes. The procedure: (§3) The DNA sequence selectivity profile of selected molecules was investigated using a modification of the previously established DNA footprinting assay ^[32]. Following an overnight incubation of the ligand-DNA complexes, the mixture was mixed with strand separation buffer containing 10 mM EDTA, 10 mM NaOH, 0.1% bromophenol blue, 80% formamide and incubated at 100° C. for 3 min. The mixture was then immediately cooled on ice and run on an 8% denaturing gel. […] 93 (solid black line) also interacts with two further sites. The PBD dimer Talirine (green) illustrates a different binding pattern to 73, 76, 81, 88 and 93. Strong DNA footprints are represented by solid lines and weaker footprints are represented by hatched lines. […] Strong DNA footprints are represented by solid lines, and weaker footprints are represented by hatched lines
(§4) Footprinting reactions were performed as previously described ^[36] using the DNA fragments HexA and HexB, which together contain all 64 symmetrical hexanucleotide sequences^[6], and MS1 that contains all possible […] tetranucleotide sequences ^[38]. The DNA fragments were obtained by cutting the parent plasmids with HindIII and SacI (for HexA and MS1) or EcoRI and PstI (for HexB), and were labelled at the 3′-end of the HindIII or EcoRI sites with [α-^32P]dATP using reverse transcriptase or exo-Klenow fragment. After gel purification, the radiolabelled DNA was dissolved in 10 mM Tris-HCl pH 7.5 containing 0.1 mM EDTA, at a concentration of about 10 c.p.s per μL as determined on a hand held Geiger counter. 1.5 μL of radiolabelled DNA was mixed with 1.5 μL ligand that had been freshly diluted in 10 mM Tris-HCl pH 7.5, containing 10 mM NaCl. The complexes were left to equilibrate for at least 12 hours before digesting with 2 μL DNase I (final concentration about 0.01 units/mL). The reactions were stopped after 1 minute by adding 4 μL of formamide containing 10 mM EDTA and bromophenol blue (0.1% w/v). The samples were then heated at 100° C. for 3 minutes before loading onto 8% denaturing polyacrylamide gels containing 8 M urea. Gels were fixed in 10% acetic acid, transferred to 3MM paper, dried and exposed to a phosphor screen overnight, before analysing with a Typhoon phosphorimager

Experiment [6] deals with MS1 DNA fragment. Kind of experiment: DNA footprinting. The format is binding. Conditions: overnight incubation of ligand-DNA complexes. As for the experimental part: as §3, §4

As to `COc1cc2c(cc1OCCCC(=O)Nc1cc(C(=O)Nc3ccc(-c4cc(C(=O)Nc5ccccc5)n(C)c4)cc3)n(C)c1)N=C[C@@H]1CCCCN1C2=O` [Compound 73, (S)-4-(4-((2-Methoxy-12-oxo-6a,7,8,9,10,12-hexahydrobenzo[e]pyrido[1,2-a][1,4]diazepin-3-yl)oxy)butanamido)-1-methyl-N-(4-(1-methyl-5-(phenylcarbamoyl)-1H-pyrrol-3-yl)phenyl)-1H-pyrrole-2-carboxamide], the IC50 (usually the concentration that gives 50% inhibition) in experiment [1] stood at 0.33 nM; in experiment [2], 0.42 nM; in experiment [3] it was 0.2 nM; in experiment [4], 0.27 nM. Moreover, in experiment [5], the “number of preferred binding sites observed in HexA” value (shortened to “number … in HexA”) is recorded as “five”. Besides, the “number of preferred binding sites observed in MS1” value (shortened to “number … in MS1”) in experiment [6] is “six”.
In the case of `COc1cc2c(cc1OCCCC(=O)Nc1cc(C(=O)Nc3ccc(-c4cc(C(=O)Nc5ccc(C)cc5)n(C)c4)cc3)n(C)c1)N=C[C@@H]1CCCCN1C2=O` [Compound 76, (S)-4-(4-((2-Methoxy-12-oxo-6a,7,8,9,10,12-hexahydrobenzo[e]pyrido[1,2-a][1,4]diazepin-3-yl)oxy)butanamido)-1-methyl-N-(4-(1-methyl-5-(p-tolylcarbamoyl)-1H-pyrrol-3-yl)phenyl)-1H-pyrrole-2-carboxamide], the IC50 worked out at 0.43 nM in experiment [1], 0.53 nM in experiment [2], 0.19 nM in experiment [3] and 0.29 nM in experiment [4]. For the same compound, the “number … in HexA” value in experiment [5] is listed as “five”. The “number … in MS1” value in experiment [6] is on record as “six”.
For the compound `COC(=O)c1ccc(NC(=O)c2cc(-c3ccc(NC(=O)c4cc(NC(=O)CCCOc5cc6c(cc5OC)C(=O)N5CCCC[C@H]5C=N6)cn4C)cc3)cn2C)cc1` [Compound 81, Methyl (S)-4-(4-(4-(4-(4-((2-methoxy-12-oxo-6a,7,8,9,10,12-hexahydrobenzo[e]pyrido[1,2-a][1,4]diazepin-3-yl)oxy)butanamido)-1-methyl-1H-pyrrole-2-carboxamido)phenyl)-1-methyl-1H-pyrrole-2-carboxamido)benzoate], the IC50 was determined as 0.5 nM in experiment [1], 1.4 nM in experiment [2], 0.42 nM in experiment [3] and 0.33 nM in experiment [4]. Moreover, the “number … in HexA” value in experiment [5] is recorded as “five”. In addition, in experiment [6], the “number … in MS1” value was “six”.
Regarding `COc1cc2c(cc1OCCCC(=O)Nc1cc(C(=O)Nc3ccc(-c4cn(C)c(C(=O)Nc5ccccc5)n4)cc3)n(C)c1)N=C[C@@H]1CCCCN1C2=O` [Compound 88, (S)-4-(4-(4-(4-((2-Methoxy-12-oxo-6a,7,8,9,10,12-hexahydrobenzo[e]pyrido[1,2-a][1,4]diazepin-3-yl)oxy)butanamido)-1-methyl-1H-pyrrole-2-carboxamido)phenyl)-1-methyl-N-phenyl-1H-imidazole-2-carboxamide], the IC50 was 0.37 nM in experiment [1], 0.6 nM in experiment [2], 0.13 nM in experiment [3] and 0.06 nM in experiment [4]. Moreover, the “number … in HexA” value in experiment [5] is reported as “five”. The “number … in MS1” value in experiment [6] is “six”.
Consider `COc1cc2c(cc1OCCCC(=O)Nc1cn(C)c(C(=O)Nc3ccc(-c4cc(C(=O)Nc5ccccc5)n(C)c4)cc3)n1)N=C[C@@H]1CCCCN1C2=O` [Compound 93, (S)-4-(4-((2-Methoxy-12-oxo-6a,7,8,9,10,12-hexahydrobenzo[e]pyrido[1,2-a][1,4]diazepin-3-yl)oxy)butanamido)-1-methyl-N-(4-(1-methyl-5-(phenylcarbamoyl)-1H-pyrrol-3-yl)phenyl)-1H-imidazole-2-carboxamide], for which the IC50 in experiment [1] was determined as 0.37 nM; in experiment [2] it was 2 nM; in experiment [3], 0.18 nM; in experiment [4], 0.09 nM. Further, the “further sequences bound in MS1 not occupied by 73, 76, 81 and 88” value in experiment [6] is “two”.
